Results published in patent US20250057857A1, “AQUEOUS PARENTERAL PHARMACEUTICAL FORMULATIONS CONTAINING 4-((2-HYDROXY-3-METHOXYBENZYL)AMINO) BENZENESULFONAMIDE DERIVATIVES” (Veralox Therapeutics Inc., priority 2021, published 2025).
≈ marks a conversion by molar mass, not a printed value.

Tests used:
Format in all cases: physicochemical
[1] = Solubility in HP-β-CD at high pH; settings: 25% cyclodextrin solution, aqueous with cosolvent or surfactant or cyclodextrin
Description: Compound forms a metastable supersaturated solution when formulated with cyclodextrins. To assess for increased solubility, Compound 1 was added to a basic cyclodextrin solution to effect dissolution. The resulting solution was then adjusted with hydrochloric acid into a physiologically compatible pH range and subjected to kinetic solubility, equilibrium solubility, and formulation solubility analyses.
Kinetic solubility. […] The resulting intermediate pH values were approximately 12.5, which promoted rapid dissolution of Compound 1. However, the solutions are known to be chemically labile at higher pH values. The concentration of Compound 1 in subsequent formulation evaluations was lowered to 20 mg/mL and then reduced to 15 mg/mL.

[2] = Aqueous solubility (general statements)
[3] = Comparative solubility in SBE-β-CD at pH 9.5; settings: pH 9.5, 80 mg/mL, 22 hours stirring at room temperature
Description: For this study, 1.20 g of SBE-β-CD was weighed into a beaker and 1.31 mL of water was added. This mixture was stirred to dissolve solid completely. 0.846 g of 60% SBE-β-CD stock solution was weighed into a sample vial, and 1.53 mg of GLY, 70 μL of water, and 130 μL of 2N NaOH were added. This mixture was stirred for 10 minutes at room temperature to dissolve solid completely. 80.6 mg of Compound 1 was added (80 mg/mL) and the mixture was sonicated for 10 minutes followed by vigorous stirring for 22 hours at room temperature (23-25° C.).

[4] = Solubility measurement in buffers over a pH range; settings: thermodynamic from solid
Description: (§1) Solubility analysis of Compound 1 (N-(benzo[d]thiazol-2-yl)-4-((2-hydroxy-3-methoxybenzyl)amino)benzenesulfonamide) was performed in a total of 25 media including organic solvent, co-solvent, solubilizer and buffer, for 2 hours at room temperature.
(§2) HPLC method with acceptable resolution and main peak purity developed to determine solubility. The method is described in Table 3.
(§3) 5-10 mg of Compound 1 was added to 0.5-1 mL each medium (target concentration was 10 mg/mL), vortexed briefly to create a suspension. The samples were shaken at room temperature. The samples were prepared in duplicate (n=2) per medium and filtered at 0.5 and 2 hours. The supernatant was collected and analyzed by HPLC.

[5] = Solubility measurement in solvents; settings: for solubility at 2 h / solubility at 0.5 h: room temperature
Description: as §1, §2
About 5 mg of Compound 1 was weighed to sample vial and 0.5 mL of solvent was added (target concentration was 10 mg/mL) with 30-100 μL per time. The samples were shaken at room temperature. The samples were prepared in duplicate (n=2) per medium and filtered at 0.5 and 2 hours. The supernatant was collected and analyzed by HPLC.

[6] = Solubility measurement in solubilizers (aqueous phosphate buffer at pH 7.4)
Description: as §1, §2, §3

[7] = pH 8.0, read-out: Solubility with 25% cyclodextrin at pH 8.0
[8] = pH 9.8, read-out: Solubility with 25% cyclodextrin at pH 9.8

Compound: COc1cccc(CNc2ccc(S(=O)(=O)Nc3nc4ccccc4o3)cc2)c1O [Compound 2, N-(benzo[d]oxazol-2-yl)-4-((2-hydroxy-3-methoxybenzyl)amino)benzenesulfonamide]
- solubility [1, 7]: ~20000 µg/mL (≈ 47000 µM)
- solubility [1, 8]: ~40000 µg/mL (≈ 94000 µM)
- Solubility in water [2]: poor solubility

Compound: COc1cccc(CNc2ccc(S(=O)(=O)Nc3cccc(C(C)C)c3)cc2)c1O [Compound 3, 4-((2-hydroxy-3-methoxybenzyl)amino)-N-(3-isopropylphenyl)benzenesulfonamide]
- solubility [1, 7]: ~20000 µg/mL (≈ 46900 µM)
- solubility [1, 8]: ~40000 µg/mL (≈ 93800 µM)
- Solubility in water [2]: poor solubility

Compound: COc1cccc(CNc2ccc(S(=O)(=O)Nc3nc4ccccc4s3)cc2)c1O [Compound 1, N-(benzo[d]thiazol-2-yl)-4-((2-hydroxy-3-methoxybenzyl)amino)benzenesulfonamide]
- Dissolution in SBE-β-CD, visual observation [3]: Little, if any, dissolution
- solubility at 0.5 h ([4]; bicarbonate buffer pH 10.0, pH 10, aqueous buffer, Bicarbonate, pH 10.0, 0.5 h (measured pH 10.02)): 0.397 µg/mL (≈ 0.899 µM)
- solubility at 2 h ([4]; bicarbonate buffer pH 10.0, pH 10, aqueous buffer, Bicarbonate, pH 10.0, 2 h (measured pH 10.08)): 0.576 µg/mL (≈ 1.31 µM)
- solubility ([4]; pH 10 buffer, pH 10, aqueous buffer, pH 10, read-out: Solubility in pH 10 buffer): 0.4 to 0.6 µg/mL (≈ 0.906 to 1.36 µM)
- solubility ([4]; pH buffers, pH 1, aqueous buffer, pH 1-9 buffers, main peak not detected by HPLC, read-out: Solubility in pH buffers, pH 1-9): < 0.15 µg/mL
- solubility at 2 h ([5]; DMAC, 2 h, visual observation): Not precipitated
- solubility at 0.5 h ([5]; DMAC, organic solvent or mixture, thermodynamic from solid, 0.5 h, visual observation): > 100000 µg/mL
- solubility at 2 h ([5]; DMSO, 2 h, visual observation): Not precipitated
- solubility at 0.5 h ([5]; DMSO, organic solvent or mixture, thermodynamic from solid, 0.5 h, visual observation): > 100000 µg/mL
- solubility at 0.5 h ([5]; EtOH, organic solvent or mixture, thermodynamic from solid, 0.5 h): 290 µg/mL (≈ 657 µM)
- solubility at 2 h ([5]; EtOH, organic solvent or mixture, thermodynamic from solid, EtOH, 2 h, read-out: Solubility at 2 h): 270 µg/mL (≈ 612 µM)
- solubility at 0.5 h ([5]; Glycerin, organic solvent or mixture, thermodynamic from solid, 0.5 h): 13 µg/mL (≈ 29.4 µM)
- solubility at 2 h ([5]; Glycerin, organic solvent or mixture, thermodynamic from solid, Glycerin, 2 h, read-out: Solubility at 2 h): 25 µg/mL (≈ 56.6 µM)
- solubility at 2 h ([5]; NMP, 2 h, visual observation): Not precipitated
- solubility at 0.5 h ([5]; NMP, organic solvent or mixture, thermodynamic from solid, 0.5 h, visual observation): > 100000 µg/mL
- solubility at 0.5 h ([5]; PEG400, organic solvent or mixture, thermodynamic from solid, PEG400, 0.5 h): 4420 µg/mL (≈ 10000 µM)
- solubility at 2 h ([5]; PEG400, organic solvent or mixture, thermodynamic from solid, PEG400, 2 h, solution was clear at 2 h, read-out: Solubility at 2 h): > 10000 µg/mL
- solubility ([5]; PEG400, organic solvent or mixture, thermodynamic from solid, PEG400, span over 0.5 h and 2 h, read-out: Solubility in PEG400): 4000 to 10000 µg/mL (≈ 9060 to 22600 µM)
- solubility at 0.5 h ([5]; PG, organic solvent or mixture, thermodynamic from solid, 0.5 h): 400 µg/mL (≈ 906 µM)
- solubility at 2 h ([5]; PG, organic solvent or mixture, thermodynamic from solid, PG, 2 h, read-out: Solubility at 2 h): 420 µg/mL (≈ 951 µM)
- solubility ([5]; hexane, organic solvent or mixture, thermodynamic from solid, hexane, non-polar solvent, read-out: Solubility in hexane): < 0.15 µg/mL
- solubility at 0.5 h ([5]; n-Hexane, organic solvent or mixture, thermodynamic from solid, 0.5 h, LOQ = 0.00015 mg/mL): < 0.15 µg/mL
- solubility at 2 h ([5]; n-Hexane, organic solvent or mixture, thermodynamic from solid, n-Hexane, 2 h, LOQ = 0.00015 mg/mL, read-out: Solubility at 2 h): < 0.15 µg/mL
- solubility ([5]; solvents other than DMSO, DMAC, NMP and PEG400, organic solvent or mixture, thermodynamic from solid, solvents other than DMSO, DMAC, NMP and PEG400, read-out: Solubility in other solvents): < 1000 µg/mL
- solubility [1, 7]: ~20000 µg/mL (≈ 45300 µM)
- solubility [1, 8]: ~40000 µg/mL (≈ 90600 µM)
- Solubility in water [2]: poor solubility
- solubility at 0.5 h ([6]; 1% Tween 80 in phosphate buffer, pH 7.4, aqueous with cosolvent or surfactant or cyclodextrin, thermodynamic from solid, 1% Tween 80, phosphate buffer pH 7.4, 0.5 h): 20 µg/mL (≈ 45.3 µM)
- solubility at 2 h ([6]; 1% Tween 80 in phosphate buffer, pH 7.4, aqueous with cosolvent or surfactant or cyclodextrin, thermodynamic from solid, 1% Tween 80, phosphate buffer pH 7.4, 2 h, read-out: Solubility at 2 h): 39 µg/mL (≈ 88.3 µM)
- solubility at 0.5 h ([6]; 5% Cremophor RH40 in phosphate buffer, pH 7.4, aqueous with cosolvent or surfactant or cyclodextrin, thermodynamic from solid, 5% Cremophor RH40, phosphate buffer pH 7.4, 0.5 h): 47 µg/mL (≈ 106 µM)
- solubility at 2 h ([6]; 5% Cremophor RH40 in phosphate buffer, pH 7.4, aqueous with cosolvent or surfactant or cyclodextrin, thermodynamic from solid, 5% Cremophor RH40, phosphate buffer pH 7.4, 2 h, read-out: Solubility at 2 h): 51 µg/mL (≈ 116 µM)
- solubility at 0.5 h ([6]; 5% Solutol in phosphate buffer, pH 7.4, aqueous with cosolvent or surfactant or cyclodextrin, thermodynamic from solid, 5% Solutol, phosphate buffer pH 7.4, 0.5 h): 78 µg/mL (≈ 177 µM)
- solubility at 2 h ([6]; 5% Solutol in phosphate buffer, pH 7.4, aqueous with cosolvent or surfactant or cyclodextrin, thermodynamic from solid, 5% Solutol, phosphate buffer pH 7.4, 2 h, read-out: Solubility at 2 h): ~100 µg/mL (≈ 226 µM)
- solubility at 2 h ([6]; 5% Solutol, phosphate buffer pH 7.4, 2 h): 100 µg/mL (≈ 226 µM)
- solubility at 0.5 h ([6]; 5% Tween 80 in phosphate buffer, pH 7.4, aqueous with cosolvent or surfactant or cyclodextrin, thermodynamic from solid, 5% Tween 80, phosphate buffer pH 7.4, 0.5 h): 41 µg/mL (≈ 92.9 µM)
- solubility at 2 h ([6]; 5% Tween 80 in phosphate buffer, pH 7.4, aqueous with cosolvent or surfactant or cyclodextrin, thermodynamic from solid, 5% Tween 80, phosphate buffer pH 7.4, 2 h, read-out: Solubility at 2 h): 46 µg/mL (≈ 104 µM)
- solubility at 0.5 h ([6]; 10% HP-β-CD in phosphate buffer, pH 7.4, aqueous with cosolvent or surfactant or cyclodextrin, thermodynamic from solid, 10% HP-β-CD, phosphate buffer pH 7.4, 0.5 h): 56 µg/mL (≈ 127 µM)
- solubility at 2 h ([6]; 10% HP-β-CD in phosphate buffer, pH 7.4, aqueous with cosolvent or surfactant or cyclodextrin, thermodynamic from solid, 10% HP-β-CD, phosphate buffer pH 7.4, 2 h, read-out: Solubility at 2 h): 63 µg/mL (≈ 143 µM)
- solubility at 0.5 h ([6]; 10% Tween 80 in phosphate buffer, pH 7.4, aqueous with cosolvent or surfactant or cyclodextrin, thermodynamic from solid, 10% Tween 80, phosphate buffer pH 7.4, 0.5 h): 76 µg/mL (≈ 172 µM)
- solubility at 2 h ([6]; 10% Tween 80 in phosphate buffer, pH 7.4, aqueous with cosolvent or surfactant or cyclodextrin, thermodynamic from solid, 10% Tween 80, phosphate buffer pH 7.4, 2 h, read-out: Solubility at 2 h): 78 µg/mL (≈ 177 µM)
- solubility at 0.5 h ([6]; 20% Captisol in phosphate buffer, pH 7.4, aqueous with cosolvent or surfactant or cyclodextrin, thermodynamic from solid, 20% Captisol, phosphate buffer pH 7.4, 0.5 h): 100 µg/mL (≈ 226 µM)
- solubility at 2 h ([6]; 20% Captisol in phosphate buffer, pH 7.4, aqueous with cosolvent or surfactant or cyclodextrin, thermodynamic from solid, 20% Captisol, phosphate buffer pH 7.4, 2 h, read-out: Solubility at 2 h): 110 µg/mL (≈ 249 µM)
- solubility at 0.5 h ([6]; 20% HP-β-CD in phosphate buffer, pH 7.4, aqueous with cosolvent or surfactant or cyclodextrin, thermodynamic from solid, 20% HP-β-CD, phosphate buffer pH 7.4, 0.5 h): 170 µg/mL (≈ 385 µM)
- solubility at 2 h ([6]; 20% HP-β-CD in phosphate buffer, pH 7.4, aqueous with cosolvent or surfactant or cyclodextrin, thermodynamic from solid, 20% HP-β-CD, phosphate buffer pH 7.4, 2 h, read-out: Solubility at 2 h): 190 µg/mL (≈ 430 µM)
- solubility at 0.5 h ([6]; 40% HP-β-CD in aqueous phosphate buffer pH 7.4, pH 7.4, aqueous with cosolvent or surfactant or cyclodextrin, thermodynamic from solid, 40% HP-β-CD, phosphate buffer pH 7.4, 0.5 h): 450 µg/mL (≈ 1020 µM)
- solubility at 2 h ([6]; 40% HP-β-CD in phosphate buffer, pH 7.4, aqueous with cosolvent or surfactant or cyclodextrin, thermodynamic from solid, 40% HP-β-CD, phosphate buffer pH 7.4, 2 h, read-out: Solubility at 2 h): 570 µg/mL (≈ 1290 µM)
- Increase of solubility with the increase of HP-β-CD from 10% to 40% ([6]; HP-β-CD 10% to 40%, pH 7.4): > 8 fold
- solubility ([6]; HP-β-CD (range of contents) in aqueous phosphate buffer, pH 7.4, aqueous with cosolvent or surfactant or cyclodextrin, thermodynamic from solid, HP-β-CD, range over contents tested): 50 to 500 µg/mL (≈ 113 to 1130 µM)
- Increase of solubility with the increase of Tween 80 from 1% to 10% ([6]; Tween 80 1% to 10%): about 4 fold
- Solubility in HP-β-CD compared with Captisol (SBE-β-CD) ([6]; same concentration (20%)): nearly two times greater
